Results published in patent US20130178466A1, “Treatment of Microbial Infections” (BIOCOPEA LIMITED, priority 2009, published 2013).
Like-named read-outs stand apart in the source and are kept apart here.

Assays:
IFN-γ [1] = assay: IFN-γ levels in PBMC under LPS stimulation (ELISA); format: cell-based, human; design: production of IFN after LPS stimulation (in words): dose or concentration left out as unconfirmed
Description: (§1) The two mitogens that the inventors used to stimulate lymphocytes, and therefore assess immune function, were lipopolysaccharide (LPS) and Concanavalin A (Con A). LPS acts on B cells but not T cells, whereas Con A acts on T cells but not B cells. […] Peripheral Blood Mononuclear Cells (PMBC) were independently administered with each mitogen, LPS or Con A, and then treated with ibuproxam, benoxaprofen hydroxamate or pentoxifylline. […] Blood was collected in 6 ml vacutainers (green cap). Blood was processed within 2 h of collection. Materials used: Non-coagulated blood; FCS; RPMI-1640 media supplemented with L-Gln and P/S; PBS; sterile tips and pipettes; Sterile 15 ml Falcon; Sterile V-bottom 96-well plates with lids; Neubauer chamber; Trypan Blue solution; 70% IPA solution; Accuspin-Histopaque tubes (Sigma, A7054) Procedure: • 1. Dilute samples 1:1 in sterile PBS; • 2. Add 30 ml of diluted blood into an Accuspin-Histopaque tube (Sigma, A7054); • 3. Centrifuge at 800 rcf 15 min at room temperature (RT); • 4. After centrifugation, the red blood cells will remain at the bottom below the frit. The monocytes (PBMC) will be present on a layer above the frit, with the plasma on top; • 5. Collect the PBMC layer with a pipette into a fresh 15 ml Falcon tube and top up to 15 ml of PBS; • 6. Centrifuge at 250 rcf 10 min at RT; • 7. Discard the supernatant, flick the pellet and add another 10 ml of PBS; • 8. Centrifuge at 250 rcf 10 min at RT; • 9. Repeat steps 7 and 8; • 10. […] Count cells and make a 4×10^6 cell/ml suspension in complete medium. Add 100 μl of cell suspension per well in a V-bottom 96-well plate. Then add 50 μl of stimulant or vehicle in complete media, and 50 μl of drug or vehicle in complete media. Incubate the cells for 24 h at 37° C. 5% CO2; • 12. […] The values in the Table are expressed as the percentage value of the LPS only control. […] Standard deviation values (st error) are given underneath each value of expressed IFN-γ or TNF-α levels.

TNF-α [2] = assay: TNF-α levels in PBMC under LPS stimulation (ELISA); format: cell-based, human; conditions: for effect on TNF under LPS stimulation (in words): LPS stimulated cells
Description: as §1

IFN-γ [3] = assay: IFN-γ levels in PBMC under Con A stimulation (ELISA); format: cell-based, human; conditions: for effect against ConA-stimulated IFN production (in words): Con A stimulated cells
Description: (§2) The two mitogens that the inventors used to stimulate lymphocytes, and therefore assess immune function, were lipopolysaccharide (LPS) and Concanavalin A (Con A). LPS acts on B cells but not T cells, whereas Con A acts on T cells but not B cells.
(§3) Blood was collected in 6 ml vacutainers (green cap). Blood was processed within 2 h of collection.
(§4) Materials used: Non-coagulated blood; FCS; RPMI-1640 media supplemented with L-Gln and P/S; PBS; sterile tips and pipettes; Sterile 15 ml Falcon; Sterile V-bottom 96-well plates with lids; Neubauer chamber; Trypan Blue solution; 70% IPA solution; Accuspin-Histopaque tubes (Sigma, A7054)
(§5) Procedure: • 1. Dilute samples 1:1 in sterile PBS; • 2. Add 30 ml of diluted blood into an Accuspin-Histopaque tube (Sigma, A7054); • 3. Centrifuge at 800 rcf 15 min at room temperature (RT); • 4. After centrifugation, the red blood cells will remain at the bottom below the frit. The monocytes (PBMC) will be present on a layer above the frit, with the plasma on top; • 5. Collect the PBMC layer with a pipette into a fresh 15 ml Falcon tube and top up to 15 ml of PBS; • 6. Centrifuge at 250 rcf 10 min at RT; • 7. Discard the supernatant, flick the pellet and add another 10 ml of PBS; • 8. Centrifuge at 250 rcf 10 min at RT; • 9. Repeat steps 7 and 8; • 10. Discard the supernatant and resuspend the pellet in 1 ml of complete medium (RPMI-1640 10% FCS); • 11. Count cells and make a 4×10^6 cell/ml suspension in complete medium. Add 100 μl of cell suspension per well in a V-bottom 96-well plate. Then add 50 μl of stimulant or vehicle in complete media, and 50 μl of drug or vehicle in complete media. Incubate the cells for 24 h at 37° C. 5% CO2; • 12. After incubation, take 60 μl of cell supernatant to measure IFNγ and TNFα by ELISA (OptEIA human IFNγ, cat No. 555142 and human TNF, Cat No. 555212) following manufacturer's instructions (BD Biosciences).

TNF-α [4] = assay: TNF-α levels in PBMC under Con A stimulation (ELISA); format: cell-based, human; conditions: for effect against ConA-stimulated TNF production (in words): Con A stimulated cells
Description: as §2, §3, §4, §5

Influenza A/PR/8/34 = assay: In vivo mouse challenge with lethal influenza (H1N1); design: species or system C57BL/6 female mice; conditions: H1N1-infected mice, single intra-peritoneal dose on day 3
Description: Protocol: Fifty (50) C57BL/6 female mice (6-7 weeks old), were divided into five (5) experimental groups containing ten (10) animals each. On day 1, animals received an intranasal lethal dose (50 μl total, 25 μl nostril) of Influenza A/PR/8/34 under halothane induced anaesthesia. On Day 3, animals received one intra-peritoneal injection (100-150 μl) of the test compound (360 μg ibuproxam (BC1048), 54 μg oxametacin (BC1002), 180 μg benoxaprofen (BC 1005), 189 μg benoxaprofen hydroxamate (BC1006)).
All animals were assessed daily for morbidity, weight loss and survival from Day 1 until at least Day 6. Morbidity variables (i.e. Body Condition, Posture, Activity, Piloerection, Respiration, Vocalisation, Ataxia and Oculo/Nasal Discharges) were recorded according to the following scale of severity: Normal (0), Mild (1), Laboured (2) and Severe/Cull-point (3).
Using standard techniques as described above, mice were infected with a H1N1 virus which was allowed to become established in each of the subjects. […] The weight loss of both treated and untreated mice was then determined.

[5] = LPS, 1 μM, percentage of LPS only control (100%)
[6] = LPS, 10 μM, percentage of LPS only control (100%)
[7] = LPS, 100 μM, percentage of LPS only control (100%)
[8] = no LPS, 1 μM, percentage of LPS only control
[9] = no LPS, 10 μM, percentage of LPS only control
[10] = no LPS, 100 μM, percentage of LPS only control
[11] = ConA, 1 μM, compared to 100% untreated cells under Con A stimulation
[12] = ConA, 10 μM, compared to 100% untreated cells under Con A stimulation
[13] = ConA, 100 μM, compared to 100% untreated cells under Con A stimulation

SMILES	IFN-γ % signal (IFN-γ [1]; [5])	IFN-γ % signal (IFN-γ [1]; [6])	IFN-γ % signal (IFN-γ [1]; [7])	IFN-γ % signal (IFN-γ [1]; [8])	IFN-γ % signal (IFN-γ [1]; [9])	IFN-γ % signal (IFN-γ [1]; [10])	TNF-α % signal (TNF-α [2]; [5])	TNF-α % signal (TNF-α [2]; [6])	TNF-α % signal (TNF-α [2]; [7])	TNF-α % signal (TNF-α [2]; [8])	TNF-α % signal (TNF-α [2]; [9])	TNF-α % signal (TNF-α [2]; [10])	effect against ConA-stimulated IFN production (in words) (IFN-γ [3])	IFN-γ % signal (IFN-γ [3]; [11])	IFN-γ % signal (IFN-γ [3]; [12])	IFN-γ % signal (IFN-γ [3]; [13])	IFN-γ % signal (IFN-γ [3]; no ConA, 1 μM)	IFN-γ % signal (IFN-γ [3]; no ConA, 10 μM)	IFN-γ % signal (IFN-γ [3]; no ConA, 100 μM)	survival rate versus control, untreated mice (Influenza A/PR/8/34)	other results
CC(C(=O)NO)c1ccc2oc(-c3ccc(Cl)cc3)nc2c1 (stereo not shown) [BC1006, benoxaprofen hydroxamate]	35.29%	16.67%	21.21%	16.74%	13.46%	12.38%	106.25%	101.47%	57.77%	−2.29%	−2.27%	11.97%	clear effects	98.35%	33.81%	3.78%	3.76%	2.80%	1.82%	higher survival rate than the control	maximal effect against TNF under LPS stimulation (TNF-α [2]; at the higher concentration): 41%; effect against ConA-stimulated TNF production (in words) (TNF-α [4]): clear effects; TNF-α % signal (TNF-α [4]; [11]): 83.37%; TNF-α % signal (TNF-α [4]; [12]): 38.65%; TNF-α % signal (TNF-α [4]; [13]): 51.50%; TNF-α % signal (TNF-α [4]; no ConA, 1 μM): 2.84%; TNF-α % signal (TNF-α [4]; no ConA, 10 μM): 1.62%; TNF-α % signal (TNF-α [4]; no ConA, 100 μM): 19.51%
CC(C(=O)O)c1ccc2oc(-c3ccc(Cl)cc3)nc2c1 (stereo not shown) [BC1005, benoxaprofen]																				higher survival rate than the control	
CC(=O)CCCCn1c(=O)c2c(ncn2C)n(C)c1=O [BC1042, pentoxifylline]	102.11%	98.28%	40.73%	3.98%	1.48%	2.03%	113.04%	107.28%	114.60%	1.15%	−2.45%	−0.80%	little effect	108.10%	97.98%	92.61%	1.13%	0.42%	0.58%	higher survival rate than the control	production of IFN after LPS stimulation (in words) (IFN-γ [1]): less pronounced than ibuproxam; effect on TNF under LPS stimulation (in words) (TNF-α [2]): less of an effect; effect against ConA-stimulated TNF production (in words) (TNF-α [4]): little effect; TNF-α % signal (TNF-α [4]; [11]): 101.46%; TNF-α % signal (TNF-α [4]; [12]): 102.31%; TNF-α % signal (TNF-α [4]; [13]): 103.71%; TNF-α % signal (TNF-α [4]; no ConA, 1 μM): 1.11%; TNF-α % signal (TNF-α [4]; no ConA, 10 μM): −2.37%; TNF-α % signal (TNF-α [4]; no ConA, 100 μM): −0.77%
CC(C)Cc1ccc(C(C)C(=O)NO)cc1 (stereo not shown) [BC1048, ibuproxam]	89.21%	96.62%	−1.28%	−4.14%	−3.67%	−6.29%	105.78%	105.67%	109.93%	3.14%	0.48%	−1.28%	modest effect	94.90%	97.25%	78.18%	−0.68%	−0.61%	−1.04%	higher survival rate than the control	production of IFN after LPS stimulation (in words) (IFN-γ [1]; highest concentration): completely blocks; effect on TNF under LPS stimulation (in words) (TNF-α [2]): less of an effect; effect against ConA-stimulated TNF production (in words) (TNF-α [4]): modest effect; TNF-α % signal (TNF-α [4]; [11]): 109.64%; TNF-α % signal (TNF-α [4]; [12]): 106.74%; TNF-α % signal (TNF-α [4]; [13]): 79.25%; TNF-α % signal (TNF-α [4]; no ConA, 1 μM): 3.08%; TNF-α % signal (TNF-α [4]; no ConA, 10 μM): 0.48%; TNF-α % signal (TNF-α [4]; no ConA, 100 μM): −1.25%
COc1ccc2c(c1)c(CC(=O)NO)c(C)n2C(=O)c1ccc(Cl)cc1 [BC1002, oxametacin]																				higher survival rate than the control	
